In the oligonucleotide strings, read from the 5' end, every base follows the letter of its sugar. An asterisk marks phosphorothioate; unmarked linkages are phosphodiester. Other units and linkages are bracketed, terminal groups are in braces. A string of capitals states the bases alone. d = 2'-deoxy (DNA)
The substances below were run on human meltrin α RNA (assay: Suppression of human meltrin α expression by antisense compound in RD cell (real time PCR)). Conditions: 50 nM; RD cell; corrected by GAPDH.
Assay type: cell-based
Experimental: First, RD cell (ATCC) was suspended in DMEM containing 10% fetal bovine serum (FBS, SIGMA), and the suspension was inoculated in 6 well culture plate at 2.5×10^5 cells/well/2 mL. After incubating overnight at 37° C. in the presence of 5% CO2, the cells were washed twice with serum-free DMEM, and Opti-MEM medium (GIBCO) was added at 800 μL/well.
Gene transfection reagent Lipofectin (Invitrogen) was diluted with Opti-MEM to 20 μg/mL, and the dilution was allowed to stand at room temperature for 30 minutes. Next, the antisense oligodeoxynucleotide synthesized as described above was heated at 90° C. for 3 minutes, and after quenching on ice, diluted with Opti-MEM to a concentration 10 times higher than the final concentration. Equal amounts of the Lipofectin in Opti-MEM and the antisense oligo DNA in Opti-MEM were mixed, and the mixture was incubated at room temperature for 15 minutes and added to 6 well plate at 200 μL/well.
The culture was incubated at 37° C. for 4 hours in the presence of 5% CO2, and the culture supernatant containing the Lipofectin was removed. The cells were washed twice with serum-free DMEM, and after adding 1 mL/well of Opti-MEM and incubating for 18 hours at 37° C. in the presence of 5% CO2, the cells were subjected to the measurement of the level of expression of meltrin α RNA.
After the washing, RNA was isolated from the cell by using RNA isolation kit (RNeasy Micro Kit, QIAGEN) according to the protocol of the kit, and RNA concentration was determined by measuring absorbance at a wavelength of 260 nm with a spectrophotometer (Nano prop, LMS Co., Ltd.) (1OD=40 μg/mL). After the quantitation, the RNA was prepared to a concentration of 0.1 μg/μL by using DEPC-treated water.
0.35 μg of the isolated RNA, and 3.5 μL of 10× TaqMan buffer, 7.7 μL of 25 mM MgCl2, 7.0 μL of 2.5 mM each dNTP Mix, 1.75 μL of 50 μM Random Hexamers, 0.7 μL of 20 U/μL RNase inhibitor, and 0.9 μL of 50 U/μL MultiScribe Reverse Transcriptase (all purchased from Applied Biosystems) were mixed, and water was added to make up the total volume to 35 μL. This solution was maintained at 25° C. for 10 minutes, at 48° C. for 30 minutes, and at 95° C. for 5 minutes, and reverse transcription was conducted to synthesize cDNA.
A solution in total volume of 20 μL containing 10 μL of TaqMan Universal PCR Master Mix, 0.4 μL of 10 μM TaqMan MGB Probe (sequence 5′FAM-caccgaaggacaatccca-MGB-3′: Applied Biosystems), 0.1 μL of 50 μM Forward primer (sequence ggaagccgccagattcct) for detecting meltrin α, 0.1 μL of 50 μM Reverse primer (sequence […]) for detecting meltrin α (all purchased from Sigma-Genosys), 5 μL of the cDNA solution of (3), and 4.4 μL of water was prepared, and after maintaining the solution at 50° C. for 2 minutes and at 95° C. for 10 minutes, PCR was conducted by repeating 40 cycles of 95° C. for 15 seconds and 60° C. for 1 minute in ABI Prism 7000.
The amount of the human meltrin α RNA was measured by conducting real time PCR by using the plasmid containing the cDNA coding for the human meltrin α for the template to generate the standard curve, and calculating RNA copy number of the meltrin α in each sample. The level of expression of GAPDH was also determined by using a primer and probe set for real time PCR of human GAPDH (Pre-Developed TaqMan Assay Reagents Human GAPDH (20×) (Cat# 4310884E, Applied Biosystems).
The results of the real time PCR of the meltrin α was corrected by the level of expression of the GAPDH to calculate the suppression rate. […]

Substance	suppression rate of expression, 50 nM
H016: gggcgcgctgccatcgtcgc (GGGCGCGCTGCCATCGTCGC; antisense; DNA, all phosphorothioate, methylation of C not given here)	+ (“+” when the suppression rate was at least 30%)
H018: cagggcgagcaggagggcgc (CAGGGCGAGCAGGAGGGCGC; antisense; DNA, all phosphorothioate, methylation of C not given here)	+ (“+” when the suppression rate was at least 30%)

Same assay, conditions: 200 nM; RD cell; corrected by GAPDH

Substance	suppression rate of expression, 200 nM
H016: gggcgcgctgccatcgtcgc (GGGCGCGCTGCCATCGTCGC; antisense; DNA, all phosphorothioate, methylation of C not given here)	++ (“++” when the suppression rate was at least 50%)
H017: gggcgggggacacgggcagc (GGGCGGGGGACACGGGCAGC; antisense; DNA, all phosphorothioate, methylation of C not given here)	++ (“++” when the suppression rate was at least 50%)
H018: cagggcgagcaggagggcgc (CAGGGCGAGCAGGAGGGCGC; antisense; DNA, all phosphorothioate, methylation of C not given here)	++ (“++” when the suppression rate was at least 50%)
H019: ggcgcgagcagagcaccggc (GGCGCGAGCAGAGCACCGGC; antisense; DNA, all phosphorothioate, methylation of C not given here)	++ (“++” when the suppression rate was at least 50%)
H020: tcacccctcgggcctcgcag (TCACCCCTCGGGCCTCGCAG; antisense; DNA, all phosphorothioate, methylation of C not given here)	++ (“++” when the suppression rate was at least 50%)
H021: tcttccttggttccataagc (TCTTCCTTGGTTCCATAAGC; antisense; DNA, all phosphorothioate, methylation of C not given here)	+ (“+” when the suppression rate was at least 30%)
H023: ggtccccactccgaacagag (GGTCCCCACTCCGAACAGAG; antisense; DNA, all phosphorothioate, methylation of C not given here)	+ (“+” when the suppression rate was at least 30%)
H026: gtcgaatattcagcacttct (GTCGAATATTCAGCACTTCT; antisense; DNA, all phosphorothioate, methylation of C not given here)	+ (“+” when the suppression rate was at least 30%)
H027: ttctttgctttcccgttgta (TTCTTTGCTTTCCCGTTGTA; antisense; DNA, all phosphorothioate, methylation of C not given here)	+ (“+” when the suppression rate was at least 30%)
H028: ctttccagatttatgatcag (CTTTCCAGATTTATGATCAG; antisense; DNA, all phosphorothioate, methylation of C not given here)	+ (“+” when the suppression rate was at least 30%)
H029: tggcaatgagaccttcattt (TGGCAATGAGACCTTCATTT; antisense; DNA, all phosphorothioate, methylation of C not given here)	+ (“+” when the suppression rate was at least 30%)
H030: gtgggtttccgtgaaactgc (GTGGGTTTCCGTGAAACTGC; antisense; DNA, all phosphorothioate, methylation of C not given here)	+ (“+” when the suppression rate was at least 30%)
H031: tcagtaccgtcttgcagata (TCAGTACCGTCTTGCAGATA; antisense; DNA, all phosphorothioate, methylation of C not given here)	+ (“+” when the suppression rate was at least 30%)
H032: aatttcgagcgagggagaca (AATTTCGAGCGAGGGAGACA; antisense; DNA, all phosphorothioate, methylation of C not given here)	+ (“+” when the suppression rate was at least 30%)
H033: gtgacccagaattaccgtgt (GTGACCCAGAATTACCGTGT; antisense; DNA, all phosphorothioate, methylation of C not given here)	+ (“+” when the suppression rate was at least 30%)
H034: acatgtccatggtagtaaca (ACATGTCCATGGTAGTAACA; antisense; DNA, all phosphorothioate, methylation of C not given here)	++ (“++” when the suppression rate was at least 50%)
H035: ctgaatcagaatatccccgt (CTGAATCAGAATATCCCCGT; antisense; DNA, all phosphorothioate, methylation of C not given here)	++ (“++” when the suppression rate was at least 50%)
H036: acacgtgctgagactgactg (ACACGTGCTGAGACTGACTG; antisense; DNA, all phosphorothioate, methylation of C not given here)	++ (“++” when the suppression rate was at least 50%)
H037: ataagtcccctgagaccaga (ATAAGTCCCCTGAGACCAGA; antisense; DNA, all phosphorothioate, methylation of C not given here)	+ (“+” when the suppression rate was at least 30%)
H040: ttgtatctgttggttgcact (TTGTATCTGTTGGTTGCACT; antisense; DNA, all phosphorothioate, methylation of C not given here)	+ (“+” when the suppression rate was at least 30%)
H041: gcttcttcgctgggaagagt (GCTTCTTCGCTGGGAAGAGT; antisense; DNA, all phosphorothioate, methylation of C not given here)	+ (“+” when the suppression rate was at least 30%)
H043: gtgttgtgatgtgatccaca (GTGTTGTGATGTGATCCACA; antisense; DNA, all phosphorothioate, methylation of C not given here)	+ (“+” when the suppression rate was at least 30%)
H044: tctttgcagcgaggtttggt (TCTTTGCAGCGAGGTTTGGT; antisense; DNA, all phosphorothioate, methylation of C not given here)	++ (“++” when the suppression rate was at least 50%)
H045: agagggtggtggaaacacat (AGAGGGTGGTGGAAACACAT; antisense; DNA, all phosphorothioate, methylation of C not given here)	++ (“++” when the suppression rate was at least 50%)
H046: tgccttcttgcccatgtctg (TGCCTTCTTGCCCATGTCTG; antisense; DNA, all phosphorothioate, methylation of C not given here)	++ (“++” when the suppression rate was at least 50%)
H048: cagctccacatacttagttg (CAGCTCCACATACTTAGTTG; antisense; DNA, all phosphorothioate, methylation of C not given here)	++ (“++” when the suppression rate was at least 50%)
H049: cggttgtctgccacgatcac (dC*dG*dG*dT*dT*dG*dT*dC*dT*dG*dC*dC*dA*dC*dG*dA*dT*dC*dA*dC; antisense)	+ (“+” when the suppression rate was at least 30%)
H055: tccacgcctaccaacacgat (dT*dC*dC*dA*dC*dG*dC*dC*dT*dA*dC*dC*dA*dA*dC*dA*dC*dG*dA*dT; antisense)	++ (“++” when the suppression rate was at least 50%)
H058: tcatggaggctggtgaatgg (dT*dC*dA*dT*dG*dG*dA*dG*dG*dC*dT*dG*dG*dT*dG*dA*dA*dT*dG*dG; antisense)	++ (“++” when the suppression rate was at least 50%)
